What was measured:
[1] = system: RSV-A2; assay: Virus inhibition assay (plaque reduction), RSV-A2 on Hep-2 cells; type: cell-based; settings: human respiratory syncytial virus; RSV-A2, Hep-2 cells; read-out: EC50 (µM) (95% CI)
[2] = system: HCoV-OC43; assay: Virus inhibition assay (focus reduction), HCoV-OC43 on MRC-5 cells; type: cell-based, human coronavirus; settings: Betacoronavirus 1, OC43, MRC5, read-out: EC50 (µM) (95% CI)
[3] = system: IFV-A H1N1; assay: Virus inhibition assay (focus reduction), IFV-A H1N1 on MDCK cells; type: cell-based; settings: Influenza A virus, read-out: EC50 (µM) (95% CI)
[4] = system: RSV-A2; assay: Virus inhibition assay, RSV-A2 on A549 cells; type: cell-based; settings: human respiratory syncytial virus, read-out: EC50 (µM) (95% CI)
[5] = system: RSV-B; assay: Virus inhibition assay, RSV strain B WV/14617/85 on Hep-2 cells; type: cell-based; settings: human respiratory syncytial virus; RSV B WV/14617/85, Hep-2 cells; read-out: EC50 (µM) (95% CI)
[6] = system: HCoV-OC43; assay: Virus inhibition assay, HCoV-OC43 on A549 cells; type: cell-based, human coronavirus; settings: Betacoronavirus 1, read-out: EC50 (µM) (95% CI)
[7] = system: HCoV-229E; assay: Virus inhibition assay, HCoV-229E on MRC-5 cells; type: cell-based; settings: Human coronavirus 229E, MRC5, read-out: EC50 (µM) (95% CI)
[8] = system: IFV-A H1N1; assay: Virus inhibition assay, IFV-A H1N1 on A549 cells; type: cell-based; settings: Influenza A virus, read-out: EC50 (µM) (95% CI)
[9] = system: IFV-A H3N2; assay: Virus inhibition assay, IFV-A H3N2 on MDCK cells; type: cell-based; settings: Influenza A virus, read-out: EC50 (µM) (95% CI)
[10] = system: IFV-B; assay: Virus inhibition assay, IFV-B on MDCK cells; type: cell-based; settings: unidentified influenza virus, read-out: EC50 (µM) (95% CI)
[11] = Cell viability MTS assay on MRC-5 cells; type: cell-based; settings: human, same conditions as HCoV inhibition assay, read-out: CC50 (µM) (95% CI)
[12] = system: Hep-2 cells; assay: Cytotoxic effect microscopically visible in the RSV-A2 screening; type: cell-based, human; design: key: -: Cytotoxic effect microscopically visible; settings: 33 µM
[13] = system: RSV-A2; assay: Virus inactivation (virucidal) assay, RSV-A2; type: cell-based, respiratory syncytial virus; settings: EC90 dose, 2 h incubation with 200,000 PFUs
[14] = system: HCoV-OC43; assay: Virus inactivation (virucidal) assay, HCoV-OC43; type: cell-based, human coronavirus; settings: EC90 dose, 2 h incubation with 200,000 FFUs
[15] = system: RSV-A2; assay: Time-of-addition assay, RSV-A2; type: cell-based, respiratory syncytial virus
[16] = system: HCoV-OC43; assay: Time-of-addition assay, HCoV-OC43; type: cell-based, human coronavirus; settings: for EC50: Betacoronavirus 1, HCoV-OC43
[17] = system: RSV-A2; assay: Immunofluorescence of dsRNA and viral protein, RSV-A2 in Hep-2 cells; type: cell-based, respiratory syncytial virus; settings: EC50 (2µM) or 2-fold EC90 dose (30µM), 24h post-infection
[18] = system: RSV-A2; assay: Anti-RSV activity on a 3D model of human bronchial epithelium; type: cell-based, respiratory syncytial virus; settings: for Reduction in RSV progeny: 72 h post-infection, 10,000 PFUs
[19] = system: human bronchial epithelium (MucilAir); assay: LDH cytotoxicity assay on 3D human bronchial epithelium; type: cell-based; settings: 6 µM and 12 µM, harvested daily up to 72 h
[20] = in vitro; settings: human
[21] = Cell viability MTS assay on MDCK cells; settings: dog
[22] = Cell viability MTS assay on Hep-2 cells; settings: human

With CC(C)(CC(=O)O)NC(=O)c1cc(-c2ccccc2)c(=O)n2c1sc1ccc(OC3CCCCC3)cc12 [Compound 1] the EC50 [1] was 1.3 µM, the EC50 [2] was 4.83 µM and the EC50 [3] was 5.49 µM. It also gave an EC50 [4] of 7.78 µM, an EC50 [5] of 4.23 µM and an EC50 [6] of 8.14 µM. It also gave an EC50 [7] of 45.3 µM, an EC50 [8] of 6.29 µM and an EC50 [9] of 5.96 µM. For the same compound, the EC50 [10] was 4.21 µM, the CC50 [11] was 59.6 µM and the “Cytotoxic effect microscopically visible” value [12] was “- ^a”. For the same compound, the “Virucidal activity on extracellular RSV particle” value [13] was “did not directly inactivate”, the “Virucidal activity: HCoV-OC43 titer” value [14] was “modest—although negligible—reduction” and the “Activity against RSV, pre-treatment” value ([15]; compound added 2 h before infection) was “not active”. The “Activity against RSV, co-treatment” value ([15]; compound added with virus inoculum, first 2 h of infection) was “not active”, the EC50 ([15]; human respiratory syncytial virus, RSV, treated 72 h after removal of viral inoculum, read-out: EC50, post-treatment) was 8.2 µM and the EC50 ([16]; after infection, read-out: EC50, post-treatment) was 7.5 µM. The EC50 ([16]; during infection, read-out: EC50, co-treatment) was 16.3 µM, the “Activity against HCoV-OC43, treatment before the infection” value ([16]; pre-treatment) was “did not exert inhibitory activity” and the “Effect on nucleic acid replication and viral protein production of RSV-A2” value [17] was “did not inhibit”. The “Reduction in RSV progeny” value ([18]; 6 µM every 24 h) was 1.1 log, the “Reduction in RSV progeny” value ([18]; 12 µM every 24 h) was 1.5 log and the “Morphology of the bronchial epithelial cells in infected treated sample” value ([18]; brightfield images, compared to infected untreated) was “sufficiently preserved”. For the same compound, the “Anti-RSV immunopositivity of the epithelia” value ([18]; end of experiment, immunofluorescence) was “reduction in immunopositivity”, the “Cytotoxic effect on the epithelia (LDH assay on basal media)” value [19] was “did not exert any cytotoxic effect” and the CC50 [20] was 57.6 µM. For the same compound, the CC50 ([20]; CC50 (µM) (95% CI), A549 cells, HCoV OC43 assay conditions) was 150 µM, the CC50 ([20]; CC50 (µM) (95% CI), A549 cells, RSV A2 assay conditions) was 30.8 µM and the CC50 [21] was 41.1 µM. It also gave a CC50 [22] of 61.3 µM.

From PMC12299477 (Viruses, 2025)
